What was measured:
[1] = test system: Receptor-type tyrosine-protein kinase FLT3 (Homo sapiens), P36888 [UNDEFINED MUTATION]; conditions: Compound concentration 1000.0 nM
[2] = molecular target: cGMP-dependent protein kinase 1 (Homo sapiens) (UniProt Q13976); conditions: Compound concentration 1000.0 nM
[3] = molecular target: Mitotic checkpoint serine/threonine-protein kinase BUB1 (Homo sapiens) (UniProt O43683); conditions: Compound concentration 1000.0 nM
[4] = molecular target: Citron Rho-interacting kinase (Homo sapiens) (UniProt O14578); conditions: Compound concentration 1000.0 nM
[5] = molecular target: Mitogen-activated protein kinase kinase kinase 13 (Homo sapiens) (UniProt O43283); conditions: Compound concentration 1000.0 nM
[6] = molecular target: D(4) dopamine receptor (Homo sapiens) (UniProt P21917); conditions: Compound concentration 10.0 uM
[7] = molecular target: Myotonin-protein kinase (Homo sapiens) (UniProt Q09013); conditions: Compound concentration 1000.0 nM
Myotonin-protein kinase (Homo sapiens), sequence (Q09013 whole entry): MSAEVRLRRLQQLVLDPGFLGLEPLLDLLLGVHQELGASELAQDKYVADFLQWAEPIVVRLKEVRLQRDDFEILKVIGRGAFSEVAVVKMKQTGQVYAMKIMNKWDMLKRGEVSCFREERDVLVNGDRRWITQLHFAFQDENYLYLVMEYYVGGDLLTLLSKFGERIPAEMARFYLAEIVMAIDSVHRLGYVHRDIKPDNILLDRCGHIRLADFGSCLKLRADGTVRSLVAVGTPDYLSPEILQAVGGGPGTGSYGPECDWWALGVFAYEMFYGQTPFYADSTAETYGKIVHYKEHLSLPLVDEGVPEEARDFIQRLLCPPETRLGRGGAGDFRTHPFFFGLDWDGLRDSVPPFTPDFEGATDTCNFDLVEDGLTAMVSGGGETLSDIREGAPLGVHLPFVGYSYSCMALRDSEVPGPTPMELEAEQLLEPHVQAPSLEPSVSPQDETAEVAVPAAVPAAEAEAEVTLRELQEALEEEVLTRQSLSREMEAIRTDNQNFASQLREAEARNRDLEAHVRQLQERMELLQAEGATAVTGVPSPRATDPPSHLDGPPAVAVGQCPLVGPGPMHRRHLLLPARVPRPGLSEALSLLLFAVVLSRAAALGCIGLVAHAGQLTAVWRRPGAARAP

[8] = molecular target: Dual specificity mitogen-activated protein kinase kinase 1 (Homo sapiens) (UniProt Q02750); conditions: Compound concentration 1000.0 nM
[9] = molecular target: Phosphatidylinositol 4,5-bisphosphate 3-kinase catalytic subunit delta isoform (Homo sapiens) (UniProt O00329); conditions: Compound concentration 1000.0 nM
Phosphatidylinositol 4,5-bisphosphate 3-kinase catalytic subunit delta isoform (Homo sapiens), sequence (O00329 whole entry, canonical isoform): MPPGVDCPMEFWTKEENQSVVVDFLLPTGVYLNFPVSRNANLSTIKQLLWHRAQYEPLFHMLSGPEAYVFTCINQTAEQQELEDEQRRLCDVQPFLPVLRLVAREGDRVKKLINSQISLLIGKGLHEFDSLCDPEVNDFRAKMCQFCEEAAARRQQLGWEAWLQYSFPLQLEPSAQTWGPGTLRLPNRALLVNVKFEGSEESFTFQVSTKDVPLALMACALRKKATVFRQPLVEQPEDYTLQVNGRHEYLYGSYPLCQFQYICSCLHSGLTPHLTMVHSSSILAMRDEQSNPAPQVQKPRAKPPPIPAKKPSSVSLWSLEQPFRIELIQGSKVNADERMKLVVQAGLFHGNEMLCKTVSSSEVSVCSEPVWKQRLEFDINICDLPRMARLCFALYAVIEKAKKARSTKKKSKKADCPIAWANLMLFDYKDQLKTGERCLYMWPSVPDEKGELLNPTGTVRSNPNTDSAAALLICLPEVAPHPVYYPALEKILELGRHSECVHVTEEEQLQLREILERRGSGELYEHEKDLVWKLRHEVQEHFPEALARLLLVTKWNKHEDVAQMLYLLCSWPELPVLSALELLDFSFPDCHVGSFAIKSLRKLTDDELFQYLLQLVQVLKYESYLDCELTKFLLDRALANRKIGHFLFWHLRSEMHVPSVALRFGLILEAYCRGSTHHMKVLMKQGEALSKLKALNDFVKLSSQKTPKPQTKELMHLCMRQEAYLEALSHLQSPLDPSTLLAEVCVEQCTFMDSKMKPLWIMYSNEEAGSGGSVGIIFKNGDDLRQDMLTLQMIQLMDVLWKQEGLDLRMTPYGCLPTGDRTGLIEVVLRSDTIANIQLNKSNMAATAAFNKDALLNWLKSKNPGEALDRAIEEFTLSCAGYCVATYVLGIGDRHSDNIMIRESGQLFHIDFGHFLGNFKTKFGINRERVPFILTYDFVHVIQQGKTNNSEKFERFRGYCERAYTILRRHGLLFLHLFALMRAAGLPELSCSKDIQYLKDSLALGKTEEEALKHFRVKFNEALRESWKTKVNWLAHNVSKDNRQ

[10] = molecular target: ALK tyrosine kinase receptor (Homo sapiens) (UniProt Q9UM73); conditions: Compound concentration 1000.0 nM
ALK tyrosine kinase receptor (Homo sapiens), sequence (Q9UM73 19-1620 limits assumed): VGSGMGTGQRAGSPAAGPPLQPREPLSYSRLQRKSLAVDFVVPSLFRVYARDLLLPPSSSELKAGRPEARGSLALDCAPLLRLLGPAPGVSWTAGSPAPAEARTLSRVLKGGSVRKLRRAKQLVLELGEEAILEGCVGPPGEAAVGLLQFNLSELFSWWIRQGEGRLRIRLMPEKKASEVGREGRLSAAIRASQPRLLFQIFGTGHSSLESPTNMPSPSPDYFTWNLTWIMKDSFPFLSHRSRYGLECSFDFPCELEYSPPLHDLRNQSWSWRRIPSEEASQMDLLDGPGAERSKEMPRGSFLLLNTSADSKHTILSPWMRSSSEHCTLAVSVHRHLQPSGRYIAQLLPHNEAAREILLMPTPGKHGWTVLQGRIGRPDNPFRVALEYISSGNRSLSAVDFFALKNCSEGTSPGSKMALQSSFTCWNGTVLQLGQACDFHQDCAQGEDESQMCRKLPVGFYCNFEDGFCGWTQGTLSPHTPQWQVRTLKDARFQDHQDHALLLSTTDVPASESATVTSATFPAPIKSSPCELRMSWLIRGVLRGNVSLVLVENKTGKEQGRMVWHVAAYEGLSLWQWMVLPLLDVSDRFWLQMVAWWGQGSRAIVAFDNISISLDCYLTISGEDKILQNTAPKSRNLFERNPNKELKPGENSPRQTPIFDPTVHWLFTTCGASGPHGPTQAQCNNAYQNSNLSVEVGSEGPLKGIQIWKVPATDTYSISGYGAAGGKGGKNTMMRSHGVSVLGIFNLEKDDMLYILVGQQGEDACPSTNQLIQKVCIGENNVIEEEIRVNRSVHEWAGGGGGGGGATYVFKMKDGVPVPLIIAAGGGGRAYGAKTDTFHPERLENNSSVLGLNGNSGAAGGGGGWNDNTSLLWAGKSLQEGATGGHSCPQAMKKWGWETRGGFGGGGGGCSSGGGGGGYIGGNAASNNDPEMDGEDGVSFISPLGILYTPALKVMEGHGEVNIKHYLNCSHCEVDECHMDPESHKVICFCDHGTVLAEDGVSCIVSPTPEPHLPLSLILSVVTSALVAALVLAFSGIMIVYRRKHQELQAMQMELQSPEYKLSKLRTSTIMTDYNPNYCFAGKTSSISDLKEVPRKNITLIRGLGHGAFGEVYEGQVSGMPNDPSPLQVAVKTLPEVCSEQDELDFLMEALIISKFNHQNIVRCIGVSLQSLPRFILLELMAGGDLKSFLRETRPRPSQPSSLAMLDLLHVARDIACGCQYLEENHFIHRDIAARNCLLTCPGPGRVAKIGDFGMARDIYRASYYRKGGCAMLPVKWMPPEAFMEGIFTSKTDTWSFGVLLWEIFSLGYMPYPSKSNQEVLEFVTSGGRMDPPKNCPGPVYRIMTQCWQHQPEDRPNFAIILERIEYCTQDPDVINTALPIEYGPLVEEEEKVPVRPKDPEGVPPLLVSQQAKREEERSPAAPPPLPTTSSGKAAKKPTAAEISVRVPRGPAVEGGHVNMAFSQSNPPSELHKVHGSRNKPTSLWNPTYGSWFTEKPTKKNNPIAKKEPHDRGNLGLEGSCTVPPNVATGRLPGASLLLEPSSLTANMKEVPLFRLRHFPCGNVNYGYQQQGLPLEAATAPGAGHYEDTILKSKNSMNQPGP

[11] = molecular target: Serine/threonine-protein kinase OSR1 (Homo sapiens) (UniProt O95747); conditions: Compound concentration 1000.0 nM
[12] = test system: Receptor-type tyrosine-protein kinase FLT3 (Homo sapiens), P36888 [R834Q]; conditions: Compound concentration 1000.0 nM
[13] = molecular target: Serine/threonine-protein kinase TAO3 (Homo sapiens) (UniProt Q9H2K8); conditions: Compound concentration 1000.0 nM
[14] = test system: Phosphatidylinositol 4,5-bisphosphate 3-kinase catalytic subunit alpha isoform (Homo sapiens), P42336 [E542K]; conditions: Compound concentration 1000.0 nM
[15] = molecular target: Mitogen-activated protein kinase kinase kinase kinase 1 (Homo sapiens) (UniProt Q92918); conditions: Compound concentration 1000.0 nM
[16] = molecular target: BDNF/NT-3 growth factors receptor (Homo sapiens) (UniProt Q16620); conditions: Compound concentration 1000.0 nM
[17] = molecular target: Insulin receptor-related protein (Homo sapiens) (UniProt P14616); conditions: Compound concentration 1000.0 nM
[18] = molecular target: Serine/threonine-protein kinase 32A (Homo sapiens) (UniProt Q8WU08); conditions: Compound concentration 1000.0 nM
Serine/threonine-protein kinase 32A (Homo sapiens), sequence (Q8WU08 whole entry): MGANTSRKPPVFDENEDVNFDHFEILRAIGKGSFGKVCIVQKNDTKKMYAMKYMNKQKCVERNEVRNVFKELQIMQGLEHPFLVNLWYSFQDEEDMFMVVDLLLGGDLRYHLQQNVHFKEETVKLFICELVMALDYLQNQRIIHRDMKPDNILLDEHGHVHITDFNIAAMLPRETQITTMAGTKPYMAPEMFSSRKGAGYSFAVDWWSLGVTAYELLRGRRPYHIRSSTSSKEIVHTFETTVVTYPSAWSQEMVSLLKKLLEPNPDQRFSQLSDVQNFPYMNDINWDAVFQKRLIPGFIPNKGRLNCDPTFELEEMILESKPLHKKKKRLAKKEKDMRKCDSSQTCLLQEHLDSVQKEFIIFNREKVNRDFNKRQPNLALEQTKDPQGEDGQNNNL

[19] = molecular target: Mitogen-activated protein kinase 15 (Homo sapiens) (UniProt Q8TD08); conditions: Compound concentration 1000.0 nM
[20] = molecular target: Serine/threonine-protein kinase BRSK2 (Homo sapiens) (UniProt Q8IWQ3); conditions: Compound concentration 1000.0 nM
[21] = molecular target: Death-associated protein kinase 1 (Homo sapiens) (UniProt P53355); conditions: Compound concentration 1000.0 nM
[22] = molecular target: 5-hydroxytryptamine receptor 1E (Homo sapiens) (UniProt P28566); conditions: Compound concentration 10.0 uM
[23] = molecular target: Receptor-interacting serine/threonine-protein kinase 4 (Homo sapiens) (UniProt P57078); conditions: Compound concentration 1000.0 nM
[24] = molecular target: Mitogen-activated protein kinase kinase kinase 10 (Homo sapiens) (UniProt Q02779); conditions: Compound concentration 1000.0 nM
[25] = molecular target: Activated CDC42 kinase 1 (Homo sapiens) (UniProt Q07912); conditions: Compound concentration 1000.0 nM
[26] = molecular target: GABA-A receptor; anion channel (Rattus norvegicus) (UniProt O09028+P15431+P18506+P18508+P19969+P20236+P23574+P23576+P28471+P28473+P30191+P62813+P63079+P63138+Q91ZM7+Q9ES14); conditions: Compound concentration 10.0 uM
[27] = molecular target: Serine/threonine-protein kinase N1 (Homo sapiens) (UniProt Q16512); conditions: Compound concentration 1000.0 nM
[28] = molecular target: Tyrosine-protein kinase Srms (Homo sapiens) (UniProt Q9H3Y6); conditions: Compound concentration 1000.0 nM
[29] = test system: Receptor-type tyrosine-protein kinase FLT3 (Homo sapiens), P36888 [UNDEFINED MUTATION]; conditions: Compound concentration 1000.0 nM; remark: listed apart in the source
[30] = molecular target: Insulin-like growth factor 1 receptor (Homo sapiens) (UniProt P08069); conditions: Compound concentration 1000.0 nM
[31] = molecular target: Serine/threonine-protein kinase PAK 4 (Homo sapiens) (UniProt O96013); conditions: Compound concentration 1000.0 nM
[32] = molecular target: D(3) dopamine receptor (Homo sapiens) (UniProt P35462); conditions: Compound concentration 10.0 uM
[33] = molecular target: NUAK family SNF1-like kinase 1 (Homo sapiens) (UniProt O60285); conditions: Compound concentration 1000.0 nM
[34] = molecular target: Ribosomal protein S6 kinase alpha-2 (Homo sapiens) (UniProt Q15349); conditions: Compound concentration 1000.0 nM
Ribosomal protein S6 kinase alpha-2 (Homo sapiens), sequence (Q15349 whole entry): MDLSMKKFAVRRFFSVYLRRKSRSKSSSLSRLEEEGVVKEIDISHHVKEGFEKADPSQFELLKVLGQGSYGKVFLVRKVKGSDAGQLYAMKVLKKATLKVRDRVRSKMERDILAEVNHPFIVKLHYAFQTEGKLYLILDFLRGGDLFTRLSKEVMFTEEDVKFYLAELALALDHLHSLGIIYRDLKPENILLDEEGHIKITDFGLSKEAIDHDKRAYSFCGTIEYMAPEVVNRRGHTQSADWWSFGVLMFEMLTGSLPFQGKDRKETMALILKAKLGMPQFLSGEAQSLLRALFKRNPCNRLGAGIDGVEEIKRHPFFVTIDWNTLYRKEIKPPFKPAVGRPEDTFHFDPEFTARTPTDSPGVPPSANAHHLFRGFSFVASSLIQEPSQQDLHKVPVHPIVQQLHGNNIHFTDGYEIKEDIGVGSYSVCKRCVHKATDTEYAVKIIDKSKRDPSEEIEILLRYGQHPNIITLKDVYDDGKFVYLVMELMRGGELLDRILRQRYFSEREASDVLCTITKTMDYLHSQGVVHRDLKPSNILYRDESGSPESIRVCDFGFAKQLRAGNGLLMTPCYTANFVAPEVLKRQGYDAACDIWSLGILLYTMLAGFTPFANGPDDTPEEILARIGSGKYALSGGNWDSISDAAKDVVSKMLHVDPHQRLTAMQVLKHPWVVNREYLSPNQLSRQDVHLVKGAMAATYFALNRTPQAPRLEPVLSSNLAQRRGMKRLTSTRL

[35] = molecular target: Receptor-interacting serine/threonine-protein kinase 2 (Homo sapiens) (UniProt O43353); conditions: Compound concentration 1000.0 nM
[36] = molecular target: Ribosomal protein S6 kinase alpha-3 (Homo sapiens) (UniProt P51812); conditions: Compound concentration 1000.0 nM
[37] = molecular target: Mitogen-activated protein kinase kinase kinase kinase 3 (Homo sapiens) (UniProt Q8IVH8); conditions: Compound concentration 1000.0 nM
[38] = molecular target: Calcium/calmodulin-dependent protein kinase type 1 (Homo sapiens) (UniProt Q14012); conditions: Compound concentration 1000.0 nM
[39] = test system: Mast/stem cell growth factor receptor Kit (Homo sapiens), P10721 [A829P]; conditions: Compound concentration 1000.0 nM
[40] = molecular target: Serine/threonine-protein kinase PAK 5 (Homo sapiens) (UniProt Q9P286); conditions: Compound concentration 1000.0 nM
[41] = molecular target: Dual specificity mitogen-activated protein kinase kinase 4 (Homo sapiens) (UniProt P45985); conditions: Compound concentration 1000.0 nM
[42] = molecular target: Tyrosine-protein kinase Lyn (Homo sapiens) (UniProt P07948); conditions: Compound concentration 1000.0 nM
[43] = molecular target: Cyclin-dependent kinase 2 (Homo sapiens) (UniProt P24941); conditions: Compound concentration 1000.0 nM

cGMP-dependent protein kinase 1 (Homo sapiens), sequence (Q13976 whole entry): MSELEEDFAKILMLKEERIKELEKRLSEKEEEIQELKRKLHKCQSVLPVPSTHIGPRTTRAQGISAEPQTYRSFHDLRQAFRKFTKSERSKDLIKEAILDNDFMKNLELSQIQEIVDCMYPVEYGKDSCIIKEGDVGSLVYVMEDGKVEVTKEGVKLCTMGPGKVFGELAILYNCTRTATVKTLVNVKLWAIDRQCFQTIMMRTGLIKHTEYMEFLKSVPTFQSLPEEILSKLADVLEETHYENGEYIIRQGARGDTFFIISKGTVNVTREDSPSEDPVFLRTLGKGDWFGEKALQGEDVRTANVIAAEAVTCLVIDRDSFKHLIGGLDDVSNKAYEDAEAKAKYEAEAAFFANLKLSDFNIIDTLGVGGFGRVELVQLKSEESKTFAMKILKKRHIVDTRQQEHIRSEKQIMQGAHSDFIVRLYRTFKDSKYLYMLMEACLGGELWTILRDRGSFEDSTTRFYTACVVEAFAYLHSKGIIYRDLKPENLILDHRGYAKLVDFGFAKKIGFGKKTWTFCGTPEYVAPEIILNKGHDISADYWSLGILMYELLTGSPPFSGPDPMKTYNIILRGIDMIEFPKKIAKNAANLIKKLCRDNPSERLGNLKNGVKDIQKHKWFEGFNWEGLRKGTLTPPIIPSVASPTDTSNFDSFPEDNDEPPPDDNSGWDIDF

O=c1nc(-c2ccccn2)sc2ccccc12 [BTZO-1]
residual activity [1]: 100%
residual activity [2]: 100%
residual activity [3]: 100%
residual activity [4]: 100%
residual activity [5]: 100%
inhibition [6]: 10.1%
residual activity [7]: 100%
residual activity [8]: 100%
residual activity [9]: 54%
residual activity [10]: 84%
residual activity [11]: 100%
residual activity [12]: 100%
residual activity [13]: 73%
residual activity [14]: 89%
residual activity [15]: 100%
residual activity [16]: 96%
residual activity [17]: 86%
residual activity [18]: 100%
residual activity [19]: 100%
residual activity [20]: 100%
residual activity [21]: 100%
inhibition [22]: -1.13%
residual activity [23]: 84%
residual activity [24]: 100%
residual activity [25]: 100%
inhibition [26]: 55.9%
residual activity [27]: 77%
residual activity [28]: 87%
residual activity [29]: 100%
residual activity [30]: 80%
residual activity [31]: 86%
inhibition [32]: 13.6%
residual activity [33]: 100%
residual activity [34]: 100%
residual activity [35]: 82%
residual activity [36]: 88%
residual activity [37]: 90%
residual activity [38]: 92%
residual activity [39]: 100%
residual activity [40]: 87%
residual activity [41]: 100%
residual activity [42]: 100%
residual activity [43]: 96%

O=C1NC(c2ccccn2)Sc2ccccc21 (stereo unspecified) [BTZO-4]
residual activity [1]: 100%
residual activity [2]: 100%
residual activity [3]: 100%
residual activity [4]: 96%
residual activity [5]: 100%
inhibition [6]: 7.31%
residual activity [7]: 100%
residual activity [8]: 100%
residual activity [9]: 51%
residual activity [10]: 89%
residual activity [11]: 100%
residual activity [12]: 81%
residual activity [13]: 77%
residual activity [14]: 100%
residual activity [15]: 95%
residual activity [16]: 87%
residual activity [17]: 75%
residual activity [18]: 78%
residual activity [19]: 100%
residual activity [20]: 100%
residual activity [21]: 100%
inhibition [22]: -0.383%
residual activity [23]: 72%
residual activity [24]: 94%
residual activity [25]: 100%
inhibition [26]: 6.34%
residual activity [27]: 60%
residual activity [28]: 84%
residual activity [29]: 100%
residual activity [30]: 80%
residual activity [31]: 84%
inhibition [32]: 27.8%
residual activity [33]: 95%
residual activity [34]: 93%
residual activity [35]: 100%
residual activity [36]: 78%
residual activity [37]: 100%
residual activity [38]: 91%
residual activity [39]: 98%
residual activity [40]: 94%
residual activity [41]: 93%
residual activity [42]: 80%
residual activity [43]: 81%

Source: ChEMBL document CHEMBL4507329, “Data for DCP probe BTZO-1” (2021)
